Reference: patent US11518760B2 (Liverpool School of Tropical Medicine, priority 2017, dated 2022)

Key:
[1] = system: Brugia malayi microfilariae; experiment: Adult Brugia malayi mouse model, microfilaria production; assay type: in vivo; settings: Table 5B
Description: (§1) In an adult Brugia malayi mouse model treatment groups (BALB/c CCR3−/− mice, 6-8 week old) received compounds by oral delivery for 7-28 days beginning at 6-10 weeks post-infection intraperitoneal with Brugia malayi third-stage larvae. Following treatment, at 12 weeks past-infection, adult worms and released microfilariae were recovered from the peritoneal cavity, counted and staged for sex. Genomic DNA was extracted from individual adult worms (10/group) and quantification of the Wolbachia surface protein (wBm-wsp) performed by quantitative PCR.
(§2) Table 5B provides a comparison of two stereoisomers in the adult Brugia malayi mouse model above at a range of doses and durations of treatment. Data in Table 5B are expressed as a reduction in Wolbachia load in comparison to the vehicle control group.

[2] = system: Wolbachia in adult Brugia malayi; experiment: Adult Brugia malayi mouse model, Wolbachia wsp qPCR; assay type: in vivo
Description: as §1
Treatment dosage unit is mg/kg (MK) and duration stated in days (d). Abbreviations: MIN (minocycline), bid (twice daily), Ms (mesylate). Data in Table 5A are expressed as a reduction in Wolbachia load in comparison to the vehicle control group.
as §2

[3] = system: Wolbachia of the target parasite, Brugia malayi; experiment: In vitro microfilariae (Mf) Brugia malayi screen, wsp/gst qPCR; assay type: cell-based; settings: B. malayi Mf, 6 days; concentration stands in the drawing (not visible)
Description: An in vitro microfilariae (Mf) assay was used to screen against Wolbachia of the target parasite, Brugia malayi. The Mf were obtained by peritoneal lavage of gerbils (Meriones unguiculatus) harbouring a patent infection of Brugia malayi as described previously (Griffiths et al., 2010, Lab Animal).
Mf were purified using a PD-10 desalting column (Fisher) followed by centrifugation (1200 rpm for 5 minutes at room temperature) then re-suspended in filter-sterilised culture medium consisting of RPMI supplemented with heat-inactivated Foetal Calf Serum (HI-FCS), 1% Penicillin-Streptomycin and 1% Amphotericin B.
After determining the concentration of Mf, the stock solution was diluted in culture medium to ensure a final concentration of 8000 Mf/well of a 96 well plate (100 μl per well). Compounds to be tested (10 mM stock in 100% DMSO) were diluted to appropriate working concentrations in culture medium and 100 μl was added to the appropriate wells of the 96 well plate containing the Mf. Five replicates were used for each compound and each plate contained doxycycline (5 μM) and vehicle (DMSO) controls. The plates were incubated at 37° C., 5% CO2, for 6 days.
On day 6, a visual assessment of motility was performed and wells scored from 0 to 4 (where 0=no movement and 4=highly motile) in order to assess whether there were any direct effects against the Mf. To perform the anti-Wolbachia readout, DNA was extracted from each individual well using the QIAmp DNA Mini Kit (Qiagen) ‘DNA Purification from Tissues’ protocol.
The number of Wolbachia present in Mf was assessed by quantification of the Wolbachia surface protein (wsp) gene copy number and normalised to the nematode glutathione S-transferase (gst) gene by qPCR based on methods described by McGarry et al., 2004, Mol Biochem Parasitol. DNA samples were amplified in duplicate in the following 20 μl reactions containing 1× QuantiTect SYBR Green PCR master mix (Qiagen): for wsp, 0.3 μM each of forward ([…]) and reverse ([…]) primer, 3 mM MgCl2 and 2 μl of DNA. For gst, 0.35 μM of forward ([…]) and reverse primer (ATCACGGACGCCTTCACAG), 3.5 mM MgCl2 and 1 μl of DNA. qPCR was performed using the Bio-Rad CFX384 C1000 thermal cycler (Bio-Rad laboratories LTD) with a denaturation step of 95° C. for 15 min then 40 cycles at 95° C. for 15 s, 57° C. (gst) or 60° C. (wsp) for 30 s, and 72° C. for 30 s. Quantification was determined by Bio-Rad CFX manager software by comparing the DNA samples to that of a standard curve generated from serial dilution of plasmid DNA of the appropriate gene. Data in Table 3 are expressed as a reduction in Wolbachia load in comparison to the vehicle control group and normalized by positive control (doxycycline at 5 μM).

[4] = system: C6/36 Aedes albopictus cell line infected with Wolbachia pipientis (Wolbachia strain wAlbB); experiment: In vitro insect cell line assay (anti-Wolbachia screen, SYTO 11 high content imaging); assay type: cell-based; settings: 168 h; C6/36 Aedes albopictus cells infected with Wolbachia pipientis wAlbB, 7 days incubation, SYTO 11 imaging; read-out: In vitro anti-Wolbachia activity
How it was run: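 SYTO 11 staining (15 min), high-content imaging and texture analysis were the read-out on day 7. Before that, C6/36 mosquito cells carrying Wolbachia strain wAlbB were incubated at 26 °C with test compound at 5 μM final, alongside DMSO-only control wells.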

[5] = two stereoisomers at a range of doses and durations, dose/duration stands in the drawing (not visible)
[6] = Table 5B, two stereoisomers at a range of doses and durations, dose/duration stands in the drawing (not visible)
[7] = Table 5A, BALB/c CCR3−/− mice, oral, dose/duration stands in the drawing (not visible)

For `C[C@@H]1COCCN1c1nc(NCc2cccnc2C(F)(F)F)c2cccnc2n1` [drawing 700], the “% Microfilaria (Mf) production reduction cf median Vehicle” value [1, 5] was 100% and the “% Wolbachia reduction cf median Vehicle” value [2, 6] was 86.8%.
`C[C@H]1COCCN1c1nc(NCc2cccnc2C(F)(F)F)c2cccnc2n1` [drawing 696] was tested, and the “% Microfilaria (Mf) production reduction cf median Vehicle” value [1, 5] was 100% and the “% Wolbachia reduction cf median Vehicle” value [2, 6] was 99.9%.
`C[C@H]1COCCN1c1nc(NCc2cccnc2C(F)(F)F)c2cccnc2n1` [drawing 697] was tested, and the “% Microfilaria (Mf) production reduction cf median Vehicle” value [1, 5] was 100% and the “% Wolbachia reduction cf median Vehicle” value [2, 6] was 97.8%.
`C[C@@H]1COCCN1c1nc(NCc2cccnc2C(F)(F)F)c2cccnc2n1` [drawing 698] was tested, and the “% Microfilaria (Mf) production reduction cf median Vehicle” value [1, 5] was 100% and the “% Wolbachia reduction cf median Vehicle” value [2, 6] was 99.7%.
In the case of `CN(C)c1ccc(O)c2c1C[C@H]1C[C@H]3[C@H](N(C)C)C(O)=C(C(N)=O)C(=O)[C@@]3(O)C(O)=C1C2=O` [MIN, minocycline, reference compound], the “% Microfilaria (Mf) production reduction cf median Vehicle” value ([1]; BALB/c CCR3−/− mice, oral, 25 MK bid + 28 d treatment + 14 d wash-out) is reported as 100%, the “% Wolbachia reduction cf median Vehicle” value ([2]; Table 5A, BALB/c CCR3−/− mice, oral, 25 MK bid + 28 d, worms recovered 12 weeks post-infection) is reported as 83.6% and the “% Wolbachia reduction cf median Vehicle” value ([2]; Table 5B, BALB/c CCR3−/− mice, oral, 25 MK bid + 28 d treatment + 14 d wash-out) is reported as 98.2%.
With `FC1CCN(c2nc(NCc3cccnc3C(F)(F)F)c3cccnc3n2)CC1` [drawing 685] the “% Reduction level normalised to DOX (5 μm)” value (“% Reduction level normalised” for short) [3] was 97.4% and the “% Wolbachia reduction cf. DMSO” value [3] was 87.3%.
With `CC1COCCN1c1nc(NCc2cccnc2C(F)(F)F)c2cccnc2n1` (stereo not drawn) [drawing 684] the “% Reduction level normalised” value [3] was 99.8% and the “% Wolbachia reduction cf. DMSO” value [3] was 89.4%.
`CC1COCCN1c1nc(NCc2cccnc2C(F)(F)F)c2cccnc2n1` (stereo not drawn) [drawing 692] was tested, and the “% Wolbachia reduction cf median Vehicle” value [2, 7] was 97.8%.
With `FC(F)(F)c1ncccc1CNc1nc(N2CCC(Cl)CC2)nc2ncccc12` [drawing 687] the “% Reduction level normalised” value [3] was 92.9% and the “% Wolbachia reduction cf. DMSO” value [3] was 83.3%.
With `C[C@H]1COCCN1c1nc(NCc2cccnc2C(F)(F)F)c2cccnc2n1` [drawing 695] the “% Microfilaria (Mf) production reduction cf median Vehicle” value [1, 5] was 100% and the “% Wolbachia reduction cf median Vehicle” value [2, 6] was 99.7%.
With `CC(C)N(C)c1nc(NCc2cccnc2C(F)(F)F)c2cccnc2n1` [drawing 691] the “% Wolbachia reduction cf median Vehicle” value [2, 7] was 99.4%.
For `CC1COCCN1c1nc(NCc2cccnc2C(F)(F)F)c2cccnc2n1` (stereo not drawn) [drawing 693], the “% Wolbachia reduction cf median Vehicle” value [2, 7] was 98.8%.
In the case of `FC1(F)CCN(c2nc(NCc3cccnc3C(F)(F)F)c3cccnc3n2)CC1` [drawing 686], the “% Reduction level normalised” value [3] is reported as 98.2% and the “% Wolbachia reduction cf. DMSO” value [3] is reported as 88.0%.
In the case of `C[C@@H]1COCCN1c1nc(NCc2cccnc2C(F)(F)F)c2cccnc2n1` [drawing 701], the “% Microfilaria (Mf) production reduction cf median Vehicle” value [1, 5] is reported as 91.4% and the “% Wolbachia reduction cf median Vehicle” value [2, 6] is reported as 82.2%.
`C[C@@H]1COCCN1c1nc(NCc2cccnc2C(F)(F)F)c2cccnc2n1` [drawing 699] was tested, and the “% Microfilaria (Mf) production reduction cf median Vehicle” value [1, 5] was 100% and the “% Wolbachia reduction cf median Vehicle” value [2, 6] was 99.6%.
Work on `CC1(C)CN(c2nc(NCc3cccnc3C(F)(F)F)c3cccnc3n2)CCO1` [Example 239, 2-(2,2-dimethylmorpholino)-N-((2-(trifluororoethyl)pyridin-3-yl)methyl)pyrido[2,3-d]pyrimidin-4-amine] yielded an EC50 [4] of 0.01 to 1 nM.
Compound `C[C@H]1COCCN1c1nc(N2CCC2c2ccccc2C(F)(F)F)c2cccnc2n1` (stereo partly drawn) [Example 291, (3S)-3-methyl-4-(4-(2-(2-(trifluoromethyl)phenyl)azetidin-1-yl)pyrido[2,3-d]pyrimidin-2-yl)morpholine] has an EC50 [4] of 0.01 to 1 nM.
`FC1(F)CCN(Cc2nc(NCc3ccccc3C(F)(F)F)c3cccnc3n2)CC1` [Example 223] was tested, and the EC50 [4] was 100 to 1000 nM.
`FC(F)(F)c1ccccc1CNc1nc(NC2CC2)nc2ccsc12` [Example 43, N^2-cyclopropyl-N^4-(2-(trifluoromethyl)benzyl)thieno[3,2-d]pyrimidine-2,4-diamine] showed an EC50 [4] of 100 to 1000 nM.
With `CC(C)Nc1nc(NCc2ccc(C(F)(F)F)cc2)c2ncccc2n1` [Example 124, N^2-isopropyl-N^4-(4-(trifluoromethyl)benzyl)pyrido[3,2-d]pyrimidine-2,4-diamine] the EC50 [4] was 1000 to 100000 nM.
In the case of `CC(C)C1COCCN1c1nc(NCc2cccnc2C(F)(F)F)c2cccnc2n1` (stereo not drawn) [Example 269, 2-(3-isopropylmorpholino)-N-((2-(trifluoromethyl)pyridin-3-yl)methyl)pyrido[2,3-d]pyrimidin-4-amine], the EC50 [4] is reported as 1 to 10 nM.
`Oc1nc(NCc2ccccc2C(F)(F)F)c2cccnc2n1` [Example 157, 4-((2-(trifluoromethyl)benzyl)amino)pyrido[2,3-d]pyrimidin-2-ol] showed an EC50 [4] of 1000 to 100000 nM.
With `FC(F)(F)CNc1nc(NCc2ccccc2C(F)(F)F)c2sccc2n1` [Example 42, N^2-(2,2,2-trifluoroethyl)-N^4-(2-(trifluoromethyl)benzyl)thieno[3,2-d]pyrimidine-2,4-diamine] the EC50 [4] was 100 to 1000 nM.
For `CC(C)Nc1nc(NC2(c3ccccc3Cl)CC2)c2sccc2n1` [Example 48, N^4-(1-(2-chlorophenyl)cyclopropyl)-N^2-isopropylthieno[3,2-d]pyrimidine-2,4-diamine], the EC50 [4] was 100 to 1000 nM.
In the case of `FC(F)(F)c1ncccc1CNc1nc(N2CCC(Cl)C2)nc2ncccc12` (stereo not drawn) [Example 265, 2-(3-chloropyrrolidin-1-yl)-N-((2-(trifluoromethyl)pyridin-3-yl)methyl)pyrido[2,3-d]pyrimidin-4-amine], the EC50 [4] is reported as < 0.01 nM.
In the case of `Cc1nc(N(C)Cc2ccccc2C(F)(F)F)c2sccc2n1` [Example 63, N,2-dimethyl-N-(2-(trifluoromethyl)benzyl)thieno[3,2-d]pyrimidin-4-amine], the EC50 [4] is reported as 10 to 100 nM.
`C[C@H]1COCCN1c1nc(NCc2cccnc2C(F)(F)F)c2cccnc2n1` [drawing 694] was tested, and the “% Wolbachia reduction cf median Vehicle” value [2, 7] was 98.5%.
Compound `FC(F)(F)c1ncccc1CNc1nc(N2CCC2)nc2ncccc12` [Example 163, 2-(azetidin-1-yl)-N-((2-(trifluoromethyl)pyridin-3-yl)methyl)pyrido[2,3-d]pyrimidin-4-amine] has an EC50 [4] of 10 to 100 nM.
With `CC1CCCN(c2nc(NCc3cccnc3C(F)(F)F)c3cccnc3n2)C1` (stereo not drawn) [Example 311, 2-(3-methylpiperidin-1-yl)-N-((2-(trifluoromethyl)pyridin-3-yl)methyl)pyrido[2,3-d]pyrimidin-4-amine] the EC50 [4] was 0.01 to 1 nM.
